Laboratory results as given in patent US11738099B2, “Molecular probes and methods of use” (CASE WESTERN RESERVE UNIVERSITY, priority 2014, dated 2023).
Where a SMILES comes first, the peptide text is derived from it. The star is where a group is joined. X1 = O=C(O)CN1CCN(CC(=O)O)CCN(CC(O)Cn2cc(CCCC(=O)*)nn2)CCN(CC(=O)O)CC1; PEG2 = NCCOCCOCCC(=O)O

Tests used:
4T1 metastatic tumors = test: MRI of breast cancer metastatic tumor model; format: in vivo, mouse
Method: In order to construct a metastatic tumor model, 0.2×10^6 4T1 tumor cells undergone 5 days of TGFβ induction were injected through left ventricle of heart, resulting in the spread of tumor cells primarily in brain, lung, liver, lymph node, adrenal gland, chest, and bone marrow. Bioluminescent images of the mice at two weeks were used to monitor the growth of tumors. To assess the targeting capacity of l-ZD2-Cy5, brain and lung were harvested from the mice three hours after 10 nmol l-ZD2-Cy5 were injected. […] Normal brain and lung harvested from normal mice injected with l-ZD2-Cy5 were used as negative controls. Examination of bigger metastatic tumors in lymph nodes and adrenal gland, as shown in FIG. 8B further backed up the targeting efficiency of l-ZD2-Cy5.
Breast cancer metastatic tumor model was imaged at two weeks in order to validate the properties of l-ZD2-Gd(HP-DO3A) in detecting breast cancer micrometastases. In FIG. 9A, a mouse developed with metastatic tumors in lymph nodes, adrenal glands, and chest was imaged in MRI after l-ZD2-Gd(HP-DO3A) injection, in conjugation with BLI validation of tumor positions.

[1] = Relaxivity measurement at 3T; format: physicochemical
Method: The design of the EDB-FN targeted MRI agent was based on a modular system that forms small molecular contrast agent in conjugation with l-ZD2. Compound 1 in FIG. 7A was prepared by adding a short PEG linker, followed by reacting with 5-hexynoic acid, resulting in an alkyne group for conjugation through click chemistry. The final product from reaction of compound 1 and 2 was purified with HPLC and characterized with Maldi-Tof spectrum.

[2] = r1 relaxivity by T1 mapping in PC3 tumor lysates; format: physicochemical
[3] = In vitro complexation stability in PBS with Cu2+, Ca2+, Zn2+; format: physicochemical
Method: FIGS. 16(A-B) illustrate in vitro complexation stability and transmetallation analysis of ZD2-Gd(HP-DO3A). A) relative Gd content of ZD2-Gd(HP-DO3A) assayed during 200-min incubation of the agent in phosphate buffer saline (PBS) with and without Cu^2+, Ca^2+, or Zn^2+ ions. […] B) In vitro transmetallation analysis of MultiHance, OmniScan, ProHance (abbreviated as Pro.), and ZD2-Gd(HP-DO3A) (abbreviated as ZD2) in mouse senim.

[4] = tested on: PC3 prostate tumor xenografts; test: In vivo T1-weighted MRI at 7T, PC3 tumors; set-up: species or system mouse
Method: (§1) All MRI experiments were performed on a horizontal 7T Bruker scanner (Bruker Biospin Co., Billerica, Mass.). Imaging experiments were performed when the tumor size reached 5-8 mm in diameter. ZD2-Gd(HP-DO3A) was administered intravenously at the dose of 0.1 mmol/kg after acquiring pre-contrast images. Post-contrast images were obtained at 10 min interval up to 30 min. The axial slices of mouse at the tumor location were acquired using T1-weighted spin echo sequence with the following parameters: field of view (FOV): 3 cm; slice thickness: 1.2 mm; interslice distance: 1.2 mm; TR: 500 ms, TE: 8.1 ms; flip angle: 90°; average: 2; matrix size: 128×128. Contrast-to-noise ratio (CNR) at each time point was calculated by subtraction of the average signal intensity in the tumor and muscle, divided by the standard deviation of image noise. ProHance® (gadoteridol) was used as a control in the imaging experiments.

[5] = tested on: LNCaP prostate tumor xenografts; test: In vivo T1-weighted MRI at 7T, LNCaP tumors; set-up: species or system mouse
Method: as §1

LNCaP tumors = settings: 30 min after injection; before injection 3.21±0.12 s
Method: (§2) The following imaging parameters were used for T1 mapping methods: flip angle 10°; echo time 2.09 ms; slice thickness 1 mm; number of average 1; field of view 3×3 cm^2; matrix size 128×128. For each slice, 50 images that covered 5 s of the saturation recovery curve were acquired within an interval of 100 ms. Proton density (Mn) images were acquired with repetition time (TR) of 2 s. Cartesian MRSLL images were also acquired as a validation of spiral MRSLL method. Center 64 k-space lines were acquired in Cartesian method as described previously. Other acquisition parameters were the same as spiral MRSLL.
(§3) Quantitative T1 maps of the tumors were acquired before and at 30 min after the injection of ZD2-Gd(HP-DO3A) and ProHance. […] At the end of the T1 map acquisitions, the mice were sacrificed and the Gd concentration in their tumors was measured by inductively coupled plasma optical emission spectrometry (ICP-OES).

PC3 tumors = tested on: PC3 tumors
Method: as §2, §3

[6] = In vivo transmetallation and urinary excretion; set-up: species or system mouse; settings: 0.1 mmol-Gd/kg
Method: Balb/c mice (Charles River Laboratories, Wilmington, Mass., USA) were randomly divided into groups of ZD2-Gd(HP-DO3A) and ProHance (n=5) and placed in the metabolism cages, 48 hours prior to injection. […] Urine samples were collected at 12 h pre-injection, and then 8, 24, 48, and 72 h post-injection from the metabolic box. The collected urine samples were centrifuged at 4,000 rpm for 15 min. The concentration of Gd(III), Zn(II), Cu(H), and Ca(II) in the supernatant of the urine samples was determined by ICP-OES after appropriate dilutions.

[7] = Relaxivity at 1.5T in water, 37° C.; format: physicochemical
Method: Relaxivity is an important parameter for an MR contrast agent. It reflects how the relaxation rate of the surrounding water proton changes as a function of concentration, and it is directly associated with the agent's contrast enhancing capability during imaging. The relaxivity of the 4 contrast agents was tested at 37° C. in water and compared to Gd(HP-DO3A), Gd-DOTA and ZD2-Gd(HP-DO3A) (FIG. 26). […] Compared to Gd(HP-DO3A), Gd-DOTA, the size increase of the targeted contrast agents due to the peptides and PEG spacer could result in an increase of τR,^[42, 43] thus leading to higher relaxivities.

[8] = mouse, in vivo
Method: (§4) PC3 tumor-bearing athymic nude mice (sixteen mice) were randomly divided into 4 groups (four mice each group). […] The animals were sacrificed at 2 and 7 days after injection. The blood and tissue samples, including brain, femur, heart, lung, liver, muscle, spleen, and kidney, were collected and weighed. The tissue samples were then cut into small pieces and mixed with ultra-pure nitric acid (1.0 mL, 70%, EMD, Gibbstown, N.J.). The tissue samples were liquefied within 2 weeks and the solution was transferred to a centrifuge tube and centrifuged at 14,000 rpm for 15 min. The supernatant (0.2 mL) was diluted with 9.8 mL deionized water and further centrifuged at 14,000 rpm for 15 min. The Gd(III) concentration in the final supernatant was measured by ICP-OES. […] The Gd content in different organ/tissues was calculated as the percentage of injected dose per gram of organ/tissues (% Dose/g).

[9] = Gd biodistribution (ICP-OES); settings: 1 week after injection
Method: as §4

[10] = 0.1 mmol/kg i.v., up to 30 min, 7T

SMILES: CC(C)[C@H](NC(=O)[C@@H](NC(=O)CCOCCOCCNC(=O)CCCc1cn(CC(O)CN2CCN(CC(=O)O)CCN(CC(=O)O)CCN(CC(=O)O)CC2)nn1)[C@@H](C)O)C(=O)N[C@@H](CCCNC(=N)N)C(=O)N[C@H](C(=O)N[C@@H](CO)C(=O)N[C@@H](C)C(=O)N[C@@H](CC(=O)O)C(=O)O)[C@@H](C)O (some centres unmarked) [ZD2-Gd(HP-DO3A)] ({X1-PEG2}-TVRTSAD-OH)
- tumor enhancement in MRI (4T1 metastatic tumors; metastatic tumors at two weeks): All five tumors indicated in BLI showed enhancement in MRI
- signal enhancement in tumor by CNR measurement (4T1 metastatic tumors; tumor vs liver, kidney, bladder, muscle): significant higher signal enhancement
- relaxivities (T1 and T2) [1]: relatively high relaxivities
- r1 relaxivity [2]: 4.12 mM⁻¹ s⁻¹
- relative Gd content ([3]; 200-min incubation in PBS with and without Cu2+, Ca2+, or Zn2+): No decrease in Gd content
- transmetallation with endogenous metal ions ([3]; 24 hours of incubation with Cu2+, Ca2+, Zn2+ in PBS (pH=7.4)): no evident transmetallation
- signal enhancement in PC3 tumors [4, 10]: Strong signal enhancement
- signal enhancement and CNR in PC3 tumors with co-injection of free ZD2 peptide ([4]; 0.1 mmol/kg with 0.5 mmol/kg free ZD2 peptide): significantly reduced
- CNR in PC3 tumors ([4]; 10-30 min post-injection): 12-25
- increase of CNR in PC3 tumors ([4]; 10 min after injection): over two-fold increase
- increase of CNR in PC3 tumors ([4]; 30 min): over five-fold increase
- CNR in PC3 tumors ([4]; 30 min (peak), n=5, SEM): 23.7±1.68
- contrast enhancement in other organs and normal tissues ([4]; mouse, in vivo): did not produce significant contrast enhancement
- signal enhancement in LNCaP tumors [5, 10]: significantly lower signal enhancement
- CNR in LNCaP tumors ([5]; 10-30 min post-injection): 6-9
- increase of CNR in LNCaP tumors ([5]; during the first 30 min after injection): 10-60%
- CNR in LNCaP tumors relative to PC3 tumors ([5]; first 30 min): more than two times lower
- tumor T1 (LNCaP tumors): 2.54 ± 0.13 s
- tumor T1 (PC3 tumors; 30 min after injection, before injection 2.75±0.05 s): 1.81 ± 0.07 s
- change in relaxation rate (ΔR1) (PC3 tumors; among all cases (PC3/LNCaP, ZD2-Gd(HP-DO3A)/ProHance)): highest relaxation rate change
- Gd concentration in PC3 tumors by ICP-OES (PC3 tumors; mouse, in vivo): significantly higher concentration
- urine concentration of endogenous metal ions post-injection vs pre-injection [6]: without any significant increase
- dose excreted ([6]; mouse, in vivo, iv, within 24 hours post-injection, read-out: injected dose excreted in urine): > 95%
- r1 [7]: 5.4 mM⁻¹ s⁻¹
- Gd(III) concentration in most of the organs, including the brain, heart, and skin [8]: below the detection limit
- tissue retention of Gd [9]: same low tissue retention as ProHance
